What was measured:
Assay in all cases: relative viability (nuclei count vs DMSO), 5 days (fraction); higher = more cells survive
Vandetanib + Tozasertib = compound: COc1cc2/c(=N/c3ccc(Br)cc3F)nc[nH]c2cc1OCC1CCN(C)CC1 [Vandetanib] + Cc1cc(Nc2cc(N3CCN(C)CC3)nc(Sc3ccc(NC(=O)C4CC4)cc3)n2)n[nH]1 [Tozasertib] (partner 0.1 µM)
Procedure, shortened: (§1)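 Each reported value is a median over duplicate plates. It expresses relative viability: treated-well nuclei count divided by vehicle-well nuclei count. Lung cancer cell lines in 1536-well plates were dosed by pin tool a day after seeding, alone with one drug or with a fixed anchor-drug dose plus five library-drug doses (not always all listed) in √10 steps, and nuclei were counted after 5 days.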

CUDC-101 + Palbociclib = compound: C#Cc1cccc(Nc2ncnc3cc(OC)c(OCCCCCCC(=O)NO)cc23)c1 [CUDC-101] + CC(=O)c1c(C)c2cnc(Nc3ccc(N4CCNCC4)cn3)nc2n(C2CCCC2)c1=O [Palbociclib] (partner 0.5 µM)
Procedure, shortened: as §1

Vandetanib + Pictilisib = compound: COc1cc2/c(=N/c3ccc(Br)cc3F)nc[nH]c2cc1OCC1CCN(C)CC1 [Vandetanib] + CS(=O)(=O)N1CCN(Cc2cc3nc(-c4cccc5[nH]ncc45)nc(N4CCOCC4)c3s2)CC1 [Pictilisib] (partner 1 µM)
Procedure, shortened: as §1

Vandetanib + Foretinib = compound: COc1cc2/c(=N/c3ccc(Br)cc3F)nc[nH]c2cc1OCC1CCN(C)CC1 [Vandetanib] + COc1cc2c(Oc3ccc(NC(=O)C4(C(=O)Nc5ccc(F)cc5)CC4)cc3F)ccnc2cc1OCCCN1CCOCC1 [Foretinib] (partner 0.25 µM)
Procedure, shortened: as §1

Cell Line	relative viability (Vandetanib + Tozasertib; first compound 0.02 µM)	relative viability (Vandetanib + Tozasertib; first compound 0.06325 µM)	relative viability (Vandetanib + Tozasertib; first compound 0.2 µM)	relative viability (Vandetanib + Tozasertib; first compound 0.6325 µM)	relative viability (Vandetanib + Tozasertib; first compound 2 µM)	relative viability (CUDC-101 + Palbociclib; first compound 0.01 µM)	relative viability (CUDC-101 + Palbociclib; first compound 0.03162 µM)	relative viability (CUDC-101 + Palbociclib; first compound 0.1 µM)	relative viability (CUDC-101 + Palbociclib; first compound 0.3162 µM)	relative viability (CUDC-101 + Palbociclib; first compound 1 µM)	relative viability (Vandetanib + Pictilisib; first compound 0.02 µM)	relative viability (Vandetanib + Pictilisib; first compound 0.06325 µM)	relative viability (Vandetanib + Pictilisib; first compound 0.2 µM)	relative viability (Vandetanib + Pictilisib; first compound 0.6325 µM)	relative viability (Vandetanib + Pictilisib; first compound 2 µM)	relative viability (Vandetanib + Foretinib; first compound 0.02 µM)	relative viability (Vandetanib + Foretinib; first compound 0.06325 µM)	relative viability (Vandetanib + Foretinib; first compound 0.2 µM)	relative viability (Vandetanib + Foretinib; first compound 0.6325 µM)	relative viability (Vandetanib + Foretinib; first compound 2 µM)
NCI-H1437	0.408	0.402	0.134	0.402	0.389	0.287	0.327	0.302	0.342	0.302	0.463	0.419	0.432	0.357	0.481	1.26	1.25	0.271	1.35	1.19
NCI-H1650	0.354	0.24	0.146	0.378	0.374	0.37	0.23	0.294	0.308	0.19	0.561	0.511		0.555	0.515	1.28	0.693	0.224	0.753	0.641
NCI-H1651	0.68	0.688	0.14	0.854	0.686	0.548	0.543	0.497	0.529	0.493	0.621	0.519	0.478	0.528	0.374	0.938	0.721	0.13	0.786	0.708
NCI-H1666	0.606	0.581	0.387	0.577	0.633	0.64	0.661	0.661	0.599	0.664	0.343	0.446	0.498	0.451	0.322	0.908	0.947	0.439	0.93	0.786
NCI-H1734	0.24	0.289	0.14	0.216	0.261	0.357	0.374	0.342	0.382	0.274	0.43	0.435	0.479	0.449	0.43	0.825	0.913	0.169	0.903	0.771
NCI-H1755	0.581	0.568	0.648	0.536	0.567	0.431	0.472	0.507	0.469	0.435	0.427	0.381	0.254	0.426	0.369	0.9	0.884	0.9	0.956	0.868
NCI-H1793	0.335	0.351	0.195	0.341	0.242	0.275	0.272	0.36	0.253	0.247	0.338	0.309	0.27	0.341	0.379	0.605	0.606	0.406	0.648	0.41
NCI-H1915	0.424	0.422	0.438	0.419	0.412	0.547	0.493	0.524	0.472	0.339	0.858	0.901	0.946	0.944	0.888	1.08	1.11	1.11	1.08	1.06
NCI-H1944	0.262	0.265	0.235	0.239	0.243	0.33	0.298	0.322	0.311	0.216	0.328	0.345	0.339	0.345	0.334	0.895	0.887	0.904	0.813	0.783
NCI-H1975	0.771	0.714	0.0829	0.685	0.74	0.535	0.623	0.601	0.673	0.536	0.285	0.26	0.296	0.27	0.301	0.908	0.901	0.136	0.842	0.912
NCI-H1993	0.639	0.601	0.481	0.561	0.521	0.837	0.656	0.592	0.618	0.482	0.832	0.727	0.64	0.85	0.723	0.836	0.78	0.557	0.788	0.64
NCI-H2009	0.733	0.704	0.419	0.735	0.786	0.219	0.191	0.263	0.258	0.276	0.78	0.669	0.79	0.828	0.81	1.26	1.14	0.197	1.27	1.22
NCI-H2023	0.436	0.31	0.217	0.298	0.337	0.42	0.342	0.457	0.416	0.361	0.218	0.201	0.261	0.202	0.279	0.852	0.824	0.0955	0.591	0.431
NCI-H2085	0.793	0.755	0.472	0.774	0.725	0.438	0.468	0.47	0.463	0.466	0.428	0.421	0.398	0.363	0.513	0.935	0.852	0.351	0.993	0.836
